Measured values: patent publication US9434688B2, “Indole derivatives as selective androgen receptor modulators (SARMS)” (Janssen Pharmaceutica, NV, priority 2004, dated 2016)

Legend:
[1] = biological target: T1, androgen receptor LBD (Panvera) (Rattus norvegicus, UniProt P15207); assay: Androgen Receptor Filtration Binding Assay (PANVERA); conditions: [3H] R1881 tracer
T1 construct: 5 pmol androgen receptor LBD (Panvera); purchased Panvera
T1 sequence (P15207 651-882 limits assumed): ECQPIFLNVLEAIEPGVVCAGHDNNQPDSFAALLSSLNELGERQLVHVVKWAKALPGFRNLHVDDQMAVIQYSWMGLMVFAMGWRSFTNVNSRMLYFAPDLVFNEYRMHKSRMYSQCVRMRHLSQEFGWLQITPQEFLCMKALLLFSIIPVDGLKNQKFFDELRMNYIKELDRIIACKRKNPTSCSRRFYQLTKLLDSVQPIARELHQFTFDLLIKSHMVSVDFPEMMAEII
Method: The assay was run on a 96 well plate with each well filled with a total reaction volume 150 μL, of a solution containing 5 pmol androgen receptor LBD (Panvera) or 30 μL of freshly prepared rat cytosol, 0.5 nM [^3H] […] (TED buffer contains 10 mM Tris.HCl pH 7.4, 1 mM sodium molybdate, 1.5 mM EDTA, 1 mM DTT and 10% (v/v) glycerol.)
On day one, the solution containing receptor, tracer and TED buffer was distributed into a 96 well plate. Diluted test compound or control vehicle was then added to individual wells and the plate incubated at 4° C. overnight.
On day two, to each well was then added 20 μL human γ-globulin (ICN 823102), prepared at 25 mg/ml in TE pH 8.0, and 55 μL 40% polyethylene glycol 8000 (JT Baker U222-08), prepared in TE pH 8.0. The plate was incubated at 4° C. for 60 minutes. During incubation, the harvester was rinsed with 10% PEG 8000, prepared in TE pH 8.0, and a GF/C Unifilter-96 was pre-wet with 10% PEG. The binding reaction was filtered, the retentate was washed three times with 10% PEG and dried under vacuum for a couple of minutes, then dried at 50° C. for 5 min and the plate was bottom sealed. Next, 25 μL of Microscint-20 (Packard) was added to the filter wells and the plate was top sealed. The plate wells were then counted on a TopCount (Packard).
Counts per well were measured and IC50s determined by linear regression.

androgen receptor = biological target: T2, androgen receptor (Rattus norvegicus, UniProt P15207); assay: Androgen Receptor Binding Using Rat Ventral Prostate Cytosol; set-up: from tissue; host or cells: ventral prostate cytosol of castrated male Sprague Dawley or Wistar rats; conditions: Rat Cytosol; Concentration 1000 nM
T2 sequence (P15207 1-902): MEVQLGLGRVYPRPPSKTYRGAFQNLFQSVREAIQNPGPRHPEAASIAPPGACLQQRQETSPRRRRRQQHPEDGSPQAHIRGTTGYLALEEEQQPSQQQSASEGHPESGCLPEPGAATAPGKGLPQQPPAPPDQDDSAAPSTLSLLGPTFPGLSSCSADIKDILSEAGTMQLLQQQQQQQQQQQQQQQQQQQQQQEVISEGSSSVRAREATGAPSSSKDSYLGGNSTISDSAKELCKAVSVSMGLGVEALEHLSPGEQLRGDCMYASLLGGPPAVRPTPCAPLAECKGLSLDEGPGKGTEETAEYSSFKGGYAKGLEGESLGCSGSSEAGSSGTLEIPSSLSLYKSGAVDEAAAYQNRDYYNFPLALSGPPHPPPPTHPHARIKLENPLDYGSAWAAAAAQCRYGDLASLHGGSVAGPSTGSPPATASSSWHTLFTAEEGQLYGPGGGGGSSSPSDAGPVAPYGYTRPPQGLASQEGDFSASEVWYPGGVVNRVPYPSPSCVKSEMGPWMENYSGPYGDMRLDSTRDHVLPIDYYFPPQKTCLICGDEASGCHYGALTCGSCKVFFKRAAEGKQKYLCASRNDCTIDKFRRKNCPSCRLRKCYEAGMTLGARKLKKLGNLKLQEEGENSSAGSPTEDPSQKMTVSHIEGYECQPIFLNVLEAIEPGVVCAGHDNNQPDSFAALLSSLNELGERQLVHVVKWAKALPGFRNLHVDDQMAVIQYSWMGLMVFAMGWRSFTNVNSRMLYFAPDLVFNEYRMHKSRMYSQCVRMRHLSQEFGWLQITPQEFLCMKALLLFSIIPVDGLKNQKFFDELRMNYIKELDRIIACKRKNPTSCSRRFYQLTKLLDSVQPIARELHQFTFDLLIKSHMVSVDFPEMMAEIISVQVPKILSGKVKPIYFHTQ
Method: Rat Prostate Cytosol Preparation:
Male Sprague Dawley or Wistar rats (Charles River, 200-300 g) were used for each preparation. The day before preparing the cytosol, the rats were castrated using standard surgical procedures.
The rats were euthanized by carbon dioxide asphyxiation. The rat prostates were quickly removed and placed on ice in pre-chilled, pre-weighed 50 mL plastic tubes. No more than five prostates were placed into one tube. The tubes were then weighed and the prostate tissue wet weights calculated.
To the chilled prostate tissue was then added […] of chilled homogenization buffer. The homogenization buffer was freshly prepared by mixing 10 mM Tris.HCl, pH 7.4, 1 mM sodium molybdate, 1.5 mM EDTA, 1 mM dithiothreitol, 10% (v/v) glycerol and 1% protease inhibitor cocktail (Sigma P 8340).
The prostate tissue was homogenized in a cold room using a pre-chilled Polytron PT3000 homogenizer (Brinkmann). Homogenization was performed at a speed setting of 20, three times for 10 sec bursts. The tubes containing the prostate tissue was kept on ice while homogenizing. The homogenate was allowed to rest on ice for 20 sec between bursts.
The homogenate was then placed into pre-chilled 3 mL polycarbonate ultracentrifuge tubes and centrifuged in the TLA-100 rotor of a TL-100 ultracentrifuge for 12 min at 100,000 rpm at 4° C. The resulting supernatant was stored in 1 mL aliquots at −80° C. until needed.
Binding to the androgen receptor was determined according to the protocol described in Example 86 using the above prepared rat cytosol.
% Inhibition was determined by testing dilutions of the test compound (usually duplicates of 10 μM) in the binding assay. Counts per well were measured and percents of inhibition determined. […] Counts per well were measured and IC50s determined by linear regression.

## Cc1ccc(C(=O)OCC(C)(O)c2cc3cc([N+](=O)[O-])c(C(F)(F)F)cc3[nH]2)cc1 (racemic) [compound 69]
[1]
  IC50: 1200 nM
Androgen receptor
  % Inhibition: 31%
